From patent US7618990B2, “Oxazolidone derivatives as PR modulators” (Wyeth, priority 2006, dated 2009)

Tested on: alkaline phosphatase activity in T47D cells
Assay: Effects of progestins and antiprogestins on alkaline phosphatase activity in T47D cells (antagonist mode)
Format: cell-based
Conditions: Homo sapiens, % inhibition at 30 nM, in the presence of 1 nM progesterone, read-out: T47D Alkaline Phosphatase Activity IC50 (nM) or % inhibition
Method: (1) Effects of Progestins and Antiprogestins on Alkaline Phosphatase Activity in T47D Cells
PURPOSE: To identify progestins or antiprogestins by determining a compound's effect on alkaline phosphatase activity in T47D cells.
Culture Medium: • DMEM:F12 (1:1) (GIBCO, BRL) supplemented with 5% (v/v) charcoal stripped fetal bovine serum (not heat-inactivated), 100 U/mL penicillin, 100 μg/mL streptomycin, and 2 mM the GlutaMax™ reagent (GIBCO, BRL).
Alkaline Phosphatase Assay Buffer: • I. 0.1M Tris-HCl, pH 9.8, containing 0.2% the Triton® X-100 reagent • II. 0.1M Tris-HCl, pH 9.8, containing 4 mM p-nitrophenyl phosphate (Sigma). B. Cell Culture and Treatment:
Frozen T47D cells were thawed in a 37° C. water bath and diluted to 280,000 cells/mL in culture medium. To each well in a 96-well plate (Falcon, Becton Dickinson Labware), 180 μL of diluted cell suspension was added.
Twenty μL of reference or test compounds diluted in the culture medium was then added to each well. When testing for progestin antagonist activity, reference antiprogestins or test compounds were added in the presence of 1 nM progesterone. The cells were incubated at 37° C. in a 5% CO2/humidified atmosphere for 24 h.
NOTE: For high throughput screening, one concentration of each compound was tested at 0.3 μg/mL. Based on an average molecular weight of 300 g/mol for the compounds in the library, the concentration was approximately 1 μM. Subsequently, active compounds were tested in dose response assays to determine EC50 and IC50. C. Alkaline Phosphatase Enzyme Assay:
At the end of treatment, the medium was removed from the plate. Fifty μL of assay buffer I was added to each well. The plates were shaken in a titer plate shaker for 15 min. Then 150 μL of assay buffer II was added to each well. Optical density measurements were taken at 5 min intervals for 30 min at a test wavelength of 405 nm.
For reference and test compounds, a dose response curve was generated for dose (X-axis) vs. the rate of enzyme reaction (slope) (Y-axis). Square root-transformed data was used for analysis of variance and nonlinear dose response curve fitting for both agonist and antagonist modes. Huber weighting was used to down-weight the effects of outliers. EC50 or IC50 values were calculated from the retransformed values. JMP software (SAS Institute, Inc.) was used for both one-way analysis of variance and non-linear dose response analysis in both single dose and dose response studies.
Progesterone and trimegestone were reference progestins and RU486 was the reference antiprogestin. All reference compounds were run in full dose response curves and the EC50 and IC50 values were calculated.

Compound CC1(C)COC(=O)N1c1nc(-c2ccc(Cl)cc2)cs1 [Example 114, 3-[4-(4-Chlorophenyl)-1,3-thiazol-2-yl]-4,4-dimethyl-1,3-oxazolidin-2-one] has an inhibition at 0.03 µM of 53%.

Same assay, conditions: Homo sapiens, % inhibition at 3000 nM, in the presence of 1 nM progesterone, read-out: T47D Alkaline Phosphatase Activity IC50 (nM) or % inhibition

Going from O=C1OC[C@H](COCc2ccccc2)N1c1nc(-c2ccc(Br)cc2)cs1 [Example 91, (4S)-4-[(benzyloxy)methyl]-3-[4-(4-bromophenyl)-1,3-thiazol-2-yl]-1,3-oxazolidin-2-one] to CCS(=O)(=O)c1cccc(-c2csc(N3C(=O)OCC3(C)C)n2)c1 [Example 102, 3-{4-[3-(Ethylsulfonyl)phenyl]-1,3-thiazol-2-yl}-4,4-dimethyl-1,3-oxazolidin-2-one], the inhibition at 3 µM falls from 63% to 27%.

Compared with CC1(C)COC(=O)N1c1nc(-c2ccc(C#N)cc2)co1 [Example 92, 4-[2-(4,4-dimethyl-2-oxo-1,3-oxazolidin-3-yl)-1,3-oxazol-4-yl]benzonitrile], CC1(C)COC(=O)N1c1nc(-c2ccoc2)cs1 [Example 104, 3-[4-(3-Furyl)-1,3-thiazol-2-yl]-4,4-dimethyl-1,3-oxazolidin-2-one] is higher in inhibition at 3 µM: 76% for the first, 94% for the second.

Same assay, conditions: Homo sapiens, in the presence of 1 nM progesterone, 24 h, read-out: T47D Alkaline Phosphatase Activity IC50 (nM) or % inhibition

First: N#Cc1ccc(-c2csc(N3C(=O)OCC34CCC4)n2)cc1 [Example 27, 4-[2-(6-Oxo-7-oxa-5-azaspiro[3.4]oct-5-yl)-1,3-thiazol-4-yl]benzonitrile]
Second: CC1(C)COC(=S)N1c1nc(-c2ccc(C#N)cc2)cs1 [Example 82, 4-[2-(4,4-Dimethyl-2-thioxo-1,3-oxazolidin-3-yl)-1,3-thiazol-4-yl]benzonitrile]
The IC50 of the first is 2.7-fold higher: 17.1 nM for the first, 6.4 nM for the second.

First: CN1CCN(c2nc(-c3ccc(Br)cc3)cs2)C1=O [Example 76, 1-[4-(4-Bromophenyl)-1,3-thiazol-2-yl]-3-methylimidazolidin-2-one]
Second: CN1CC(C)(C)N(c2nc(-c3ccc(C#N)cc3)cs2)C1=O [Example 83, 4-[2-(3,5,5-Trimethyl-2-oxoimidazolidin-1-yl)-1,3-thiazol-4-yl]benzonitrile]
The IC50 of the first is 21-fold higher: 733 nM for the first, 35.4 nM for the second.

First: CC1(C)CN(Cc2ccccc2)C(=O)N1c1nc(-c2ccc(C#N)cc2)cs1 [Example 84, 4-[2-(3-Benzyl-5,5-dimethyl-2-oxoimidazolidin-1-yl)-1,3-thiazol-4-yl]benzonitrile]
Second: CC1(C)COC(=O)N1c1nc(-c2ccc(CC#N)cc2)cs1 [Example 103, {4-[2-(4,4-Dimethyl-2-oxo-1,3-oxazolidin-3-yl)-1,3-thiazol-4-yl]phenyl}acetonitrile]
The IC50 of the first is 3.4-fold lower: 77.9 nM for the first, 262 nM for the second.

CC1(C)COC(=O)N1c1nc(-c2ccc(C(N)=NO)cc2)cs1 [Example 85, 4-[2-(4,4-Dimethyl-2-oxo-1,3-oxazolidin-3-yl)-1,3-thiazol-4-yl]-N′-hydroxybenzene carboximidamide] and CC(=O)c1ccc(-c2csc(N3C(=O)OCC3(C)C)n2)cc1 [Example 106, 3-[4-(4-Acetylphenyl)-1,3-thiazol-2-yl]-4,4-dimethyl-1,3-oxazolidin-2-one] are within 1.5-fold of each other in IC50: 729 nM for the first, 498 nM for the second.

Going from CCC1(CC)COC(=O)N1c1nc2c(s1)CCc1cc(C#N)ccc1-2 [Example 86, 2-(4,4-Diethyl-2-oxo-1,3-oxazolidin-3-yl)-4,5-dihydronaphtho[1,2-d][1,3]thiazole-7-carbonitrile] to CC1(C)COC(=O)N1c1nc(-c2ccc(C#N)cc2)c(Cl)s1 [Example 90, 4-[5-Chloro-2-(4,4-dimethyl-2-oxo-1,3-oxazolidin-3-yl)-1,3-thiazol-4-yl]benzonitrile], the IC50 rises from 5 nM to 43.5 nM (8.7-fold). The first is the more potent here.

CC1(C)COC(=O)N1c1nc(-c2ccc(Br)cc2)ns1 [Example 93, 3-[3-(4-Bromophenyl)-1,2,4-thiadiazol-5-yl]-4,4-dimethyl-1,3-oxazolidin-2-one] and CC1(C)COC(=O)N1c1nc(-c2ccc(C#N)cc2)ns1 [Example 94, 4-[5-(4,4-dimethyl-2-oxo-1,3-oxazolidin-3-yl)-1,2,4-thiadiazol-3-yl]benzonitrile] are within 1.5-fold of each other in IC50: 135 nM for the first, 146 nM for the second.

Going from CC1(C)COC(=O)N1c1nc(-c2ccc(C(F)(F)F)cc2)cs1 [Example 95, 4,4-Dimethyl-3-{4-[4-(trifluoromethyl)phenyl]-1,3-thiazol-2-yl}-1,3-oxazolidin-2-one] to CC1(C)COC(=O)N1c1nc(-c2ccc(OC(F)(F)F)cc2)cs1 [Example 97, 4,4-Dimethyl-3-{4-[4-(trifluoromethoxy)phenyl]-1,3-thiazol-2-yl}-1,3-oxazolidin-2-one], the IC50 rises from 108 nM to 285 nM (2.6-fold).

First: CC1(C)COC(=O)N1c1nc(-c2cccc(C(F)(F)F)c2)cs1 [Example 96, 4,4-Dimethyl-3-{4-[3-(trifluoromethyl)phenyl]-1,3-thiazol-2-yl}-1,3-oxazolidin-2-one]
Second: COc1cccc(-c2csc(N3C(=O)OCC3(C)C)n2)c1 [Example 99, 3-[4-(3-Methoxyphenyl)-1,3-thiazol-2-yl]-4,4-dimethyl-1,3-oxazolidin-2-one]
The IC50 of the first is 5.1-fold higher: 328 nM for the first, 64.6 nM for the second. The second is the more potent here.

First: COc1ccc(-c2csc(N3C(=O)OCC3(C)C)n2)cc1 [Example 98, 3-[4-(4-Methoxyphenyl)-1,3-thiazol-2-yl]-4,4-dimethyl-1,3-oxazolidin-2-one]
Second: CC1(C)COC(=O)N1c1nc(-c2ccc(F)cc2)cs1 [Example 115, 3-[4-(4-Fluorophenyl)-1,3-thiazol-2-yl]-4,4-dimethyl-1,3-oxazolidin-2-one]
The IC50 of the first is 2.6-fold higher: 191 nM for the first, 72.2 nM for the second. The second is the more potent here.

COc1ccccc1-c1csc(N2C(=O)OCC2(C)C)n1 [Example 100, 3-[4-(2-Methoxyphenyl)-1,3-thiazol-2-yl]-4,4-dimethyl-1,3-oxazolidin-2-one] and COc1ccc(-c2csc(N3C(=O)OCC3(C)C)n2)cc1OC [Example 108, 3-[4-(3,4-Dimethoxyphenyl)-1,3-thiazol-2-yl]-4,4-dimethyl-1,3-oxazolidin-2-one] are within 1.5-fold of each other in IC50: 854 nM for the first, 823 nM for the second.

First: CC1(C)COC(=O)N1c1nc(-c2c(F)cc(F)cc2F)cs1 [Example 101, 4,4-Dimethyl-3-[4-(2,4,6-trifluorophenyl)-1,3-thiazol-2-yl]-1,3-oxazolidin-2-one]
Second: CC1(C)COC(=O)N1c1nc(-c2ccc(Cl)c(F)c2)cs1 [Example 109, 3-[4-(4-Chloro-3-fluorophenyl)-1,3-thiazol-2-yl]-4,4-dimethyl-1,3-oxazolidin-2-one]
The IC50 of the first is 19-fold higher: 536 nM for the first, 28.8 nM for the second.

Compared with CC1(C)COC(=O)N1c1nc(-c2ccc3[nH]ccc3c2)cs1 [Example 105, 3-[4-(1H-Indol-5-yl)-1,3-thiazol-2-yl]-4,4-dimethyl-1,3-oxazolidin-2-one], CC1(C)COC(=O)N1c1nc(-c2ccc(F)c(Cl)c2)cs1 [Example 117, 3-[4-(3-Chloro-4-fluorophenyl)-1,3-thiazol-2-yl]-4,4-dimethyl-1,3-oxazolidin-2-one] is 2.2-fold lower in IC50: 110 nM for the first, 50.4 nM for the second. The second is the more potent here.

Going from CC(=O)c1cccc(-c2csc(N3C(=O)OCC3(C)C)n2)c1 [Example 107, 3-[4-(3-Acetylphenyl)-1,3-thiazol-2-yl]-4,4-dimethyl-1,3-oxazolidin-2-one] to CC1(C)COC(=O)N1c1nc(-c2cc(Cl)cc(Cl)c2)cs1 [Example 116, 3-[4-(3,5-Dichlorophenyl)-1,3-thiazol-2-yl]-4,4-dimethyl-1,3-oxazolidin-2-one], the IC50 rises from 83.7 nM to 461 nM (5.5-fold).

First: CC1(C)OCCN1c1nc(-c2ccc(C#N)cc2)cs1 [Example 110, 4-[2-(2,2-Dimethyl-1,3-oxazolidin-3-yl)-1,3-thiazol-4-yl]benzonitrile]
Second: N#Cc1ccc(-c2csc(N3CCOC3=O)c2)cc1 [Example 112, 4-[5-(2-Oxo-1,3-oxazolidin-3-yl)-3-thienyl]benzonitrile]
The IC50 of the first is 1.8-fold lower: 269 nM for the first, 480 nM for the second.
